Type in all cases: cell-based
Assay [1] relates to SW620 (colon cancer). Nature of the assay: MTT antiproliferative assay, SW620. The conditions noted are these: Homo sapiens, SW-620, SW620, 10 μM, 48 or 72 h, read-out: inhibition of cell growth, SW620. As to the method: (§1) The antiproliferative activity of a test compound was determined in cell lines: MDA-MB-231 (breast cancer), HepG2 (liver cancer), SW620 (colon cancer), A375 (malignant melanoma), A431 (epidermoid carcinoma), A549 (lung adenocarcinoma), and HeLa ([…]). MDA-MB-231, HepG2, SW480, SW620, A375, and A431 cells were cultured in Dulbecco's modified Eagle's medium (DMEM) containing 10% fetal bovine serum (FBS). HeLa cells were cultured in MEM/EBSS (MEM) containing 10% FBS. A549 cells were maintained in Kaighn's modification of Ham's F-12 medium containing 10% FBS. The colorimetric MTT (3-(4,5-dimethylthiazol-2-yl)-2,5-diphenyltetrazolium bromide) assay was used to measure the cell viability of different cells following treatment with the test compound.
(§2) Briefly cells were seeded in a 96 well plate at a density of 2,000-5,000 cells/well. Following attachment, the cells were treated with the test compound in media at various concentrations ranging from 0.137 to 100 μM or at a single concentration of 10 μM. After the cells were incubated at 37° C. for 48 or 72 h, MTT (20 μL, 5 mg/mL in PBS) was added to each well and the cells were incubated for another 4 h at 37° C. The supernatant was removed carefully and 150 μL of DMSO was added to each well to dissolve the MTT formazan crystals. The plate was shaken for 15-20 min and the absorbance value of each well was determined using a multi-well plate reader at 490 nm. The wells treated with DMSO were taken as a vehicle control. Data were also obtained similarly for all the replicates and the percentage viability was determined with respect to the DMSO-treated cells. The results are summarized in Table 1 below, wherein A represents no less than 80% inhibition of cell growth at 10 μM; B represents no less than 50% but less than 80% inhibition of cell growth at 10 μM; C represents no less than 30% but less than 50% inhibition of cell growth at 10 μM; and D represents less than 30% inhibition of cell growth at 10 μM.
A general note: Tetrazolium dyes change colour on reduction, which living cells bring about.

The subject of assay [2] is HepG2 (liver cancer). Nature of the assay: MTT antiproliferative assay, HepG2. The conditions noted are these: Homo sapiens, HepG2, 10 μM, 48 or 72 h, read-out: inhibition of cell growth, HepG2. As to the method:
as §1, §2

In assay [3] the test system is A549 (lung adenocarcinoma). Nature of the assay: MTT antiproliferative assay, A549. Particulars: Homo sapiens, A549, 10 μM, 48 or 72 h, read-out: inhibition of cell growth, A549. As to the method:
as §1, §2

In assay [4] the test system is A375 (malignant melanoma). The assay is described as follows: MTT antiproliferative assay, A375. Particulars: Homo sapiens, A-375, A375, 10 μM, 48 or 72 h, read-out: inhibition of cell growth, A375. As to the method:
as §1, §2

In assay [5] the test system is A431 (epidermoid carcinoma). The assay is described as follows: MTT antiproliferative assay, A431. The conditions noted are these: Homo sapiens, A-431, A431, 10 μM, 48 or 72 h, read-out: inhibition of cell growth, A431. As to the method: as §1, §2
Assay [6] relates to HeLa (ovarian cancer). Nature of the assay: MTT antiproliferative assay, HeLa. Particulars: Homo sapiens, 48 or 72 h, read-out: inhibition of cell growth, HELA. As to the method: as §1, §2
The subject of assay [7] is MDA-MB-231 (breast cancer). The assay is described as follows: MTT antiproliferative assay, MDA-MB-231. The conditions noted are these: Homo sapiens, MDA-MB-231, 10 μM, 48 or 72 h, read-out: inhibition of cell growth, MDA-MB-231. As to the method: as §1, §2

In general, inhibition refers to how much of the control response was suppressed.

Where only a bound is given, the exact number is not on record here.

With `CO[C@@]1(C)C2=CC=C3[C@@](C)(CC[C@@]4(C)[C@@H]5C[C@](C)(CO)CC[C@]5(C)CC[C@]34C)C2=CC(=O)[C@@H]1O` [Compound A18, (3R,4S,6bS,8aS,11R,12aR,12bS,14aR)-3-hydroxy-11-(hydroxymethyl)-4-methoxy-4,6b,8a,11,12b,14a-hexamethyl-2,3,4,6b,7,8,8a,9,10,11,12,12a,12b,13,14,14a-hexadecahydropicen-2-one], the inhibition at 10 µM was not below 80% in assay [1]; not below 80% in assay [2]; 30 to 50% in assay [3]; 50 to 80% in assay [4]; not below 80% in assay [5]; not below 80% in assay [6]. For the same molecule, the inhibition at 10 µM in assay [7] was not below 80%.
`CCNC(=O)[C@]1(C)CC[C@]2(C)CC[C@]3(C)C4=CC=C5C(=CC(=O)C(=O)[C@@]5(C)OC)[C@]4(C)CC[C@@]3(C)[C@@H]2C1` [Compound A10, (2R,4aS,6aS,9S,12bR,14aS,14bR)—N-ethyl-9-methoxy-2,4a,6a,9,12b,14a-hexamethyl-10,11-dioxo-1,2,3,4,4a,5,6,6a,9,10,11,12b,13,14,14a,14b-hexadecahydropicene-2-carboxamide]: the inhibition at 10 µM in assay [1] is 50 to 80%; in assay [2] it was 50 to 80%; in assay [3], 30 to 50%; in assay [4], 30 to 50%; in assay [5] it was 50 to 80%; in assay [6] it was not below 80%. The inhibition at 10 µM in assay [7] was not below 80%.
With `CO[C@@]1(C)C2=CC=C3[C@@](C)(CC[C@@]4(C)[C@@H]5C[C@](C)(C(=O)O)CC[C@]5(C)CC[C@]34C)C2=CC(=NO)[C@@H]1O` [Compound A50, (2R,4aS,6aS,9S,10S,12bR,14aS,14bR)-10-hydroxy-11-(hydroxyimino)-9-methoxy-2,4a,6a,9,12b,14a-hexamethyl-1,2,3,4,4a,5,6,6a,9,10,11,12b,13,14,14a,14b-hexadecahydropicene-2-carboxylic acid], the inhibition at 10 µM in assay [1], in assay [2], in assay [3], in assay [4], in assay [5] and in assay [6] was less than 30% throughout. The inhibition at 10 µM in assay [7] was less than 30%.
As for `COC(=O)[C@]1(C)CC[C@]2(C)CC[C@]3(C)C4=CC=C5C(=C/C(=C\C#N)C(=O)C5(C)O)[C@]4(C)CC[C@@]3(C)[C@@H]2C1` (stereo partly drawn) [Compound A37, methyl (2R,4aS,6aS,11E,12bR,14aS,14bR)-11-(cyanomethylidene)-9-hydroxy-2,4a,6a,9,12b,14a-hexamethyl-10-oxo-1,2,3,4,4a,5,6,6a,9,10,11,12b,13,14,14a,14b-hexadecahydropicene-2-carboxylate], the inhibition at 10 µM in assay [1] is 50 to 80%; in assay [2], 30 to 50%; in assay [3] it was less than 30%; in assay [4], 30 to 50%; in assay [5], not below 80%; in assay [6], not below 80%. Further, the inhibition at 10 µM in assay [7] was not below 80%.
On to `CO[C@@]1(C)C2=CC=C3[C@@](C)(CC[C@@]4(C)[C@@H]5C[C@](C)(C(=O)O)CC[C@]5(C)CC[C@]34C)C2=CC(=O)C1=NNC(=O)c1ccncc1` [Compound A52, (2R,4aS,6aS,9S,12bR,14aS,14bR)-9-Methoxy-2,4a,6a,9,12b,14a-hexamethyl-11-oxo-10-{[(pyridin-4-yl)formamido]imino}-1,2,3,4,4a,5,6,6a,9,10,11,12b,13,14,14a,14b-hexadecahydropicene-2-carboxylic acid], for which the inhibition at 10 µM in assay [1], in assay [2], in assay [3], in assay [4], in assay [5] and in assay [6] was less than 30% throughout. In assay [7], the inhibition at 10 µM was less than 30%.
`CCO[C@]1(C)C(=O)C(=O)C=C2C1=CC=C1[C@@]2(C)CC[C@@]2(C)[C@@H]3C[C@](C)(C(=O)O)CC[C@]3(C)CC[C@]12C` [Compound A28, (2R,4aS,6aS,9S,12bR,14aS,14bR)-9-ethoxy-2,4a,6a,9,12b,14a-hexamethyl-10,11-dioxo-1,2,3,4,4a,5,6,6a,9,10,11,12b,13,14,14a,14b-hexadecahydropicene-2-carboxylic acid]: the inhibition at 10 µM in assay [1] is 30 to 50%; in assay [2], 50 to 80%; in assay [3], 30 to 50%; in assay [4] it was 30 to 50%; in assay [5] it was 50 to 80%; in assay [6], not below 80%. Moreover, the inhibition at 10 µM in assay [7] was in the range of 50 to 80%.
With `CO[C@]1(C)C(=O)C2(C=C3C1=CC=C1[C@@]3(C)CC[C@@]3(C)[C@@H]4C[C@](C)(C(=O)O)CC[C@]4(C)CC[C@]13C)OCCO2` [Compound A54, (4S,6bS,8aS,11R,12aR,12bS,14aR)-4-methoxy-4,6b,8a,11,12b,14a-hexamethyl-3-oxo-4,6b,7,8,8a,9,10,11,12,12a,12b,13,14,14a-tetradecahydro-3H-spiro[picene-2,2′-[1,3]dioxolane]-11-carboxylic acid], the inhibition at 10 µM in assay [1], in assay [2], in assay [3], in assay [4], in assay [5] and in assay [6] was less than 30% throughout. For the same molecule, the inhibition at 10 µM in assay [7] was less than 30%.
Regarding `CCCNC(=O)[C@]1(C)CC[C@]2(C)CC[C@]3(C)C4=CC=C5C(=CC(=O)C(=O)[C@@]5(C)OC)[C@]4(C)CC[C@@]3(C)[C@@H]2C1` [Compound A12, (2R,4aS,9S,6aS,12bR,14aS,14bR)—N-propyl-9-methoxy-2,4a,6a,9,12b,14a-hexamethyl-10,11-dioxo-1,2,3,4,4a,5,6,6a,9,10,11,12b,13,14,14a,14b-hexadecahydropicene-2-carboxamide], the inhibition at 10 µM in assay [1] was 50 to 80%; in assay [2], not below 80%; in assay [3], not below 80%; in assay [4], 30 to 50%; in assay [5] it was not below 80%; in assay [6], not below 80%. The inhibition at 10 µM in assay [7] lay in the range of 50 to 80%.
Consider `CO[C@@]1(C)C2=CC=C3[C@@](C)(CC[C@@]4(C)[C@@H]5C[C@](C)(C(=O)O)CC[C@]5(C)CC[C@]34C)C2=CC(=O)/C1=C\C#N` [Compound A30, (2R,4aS,6aS,9S,10Z,12bR,14aS,14bR)-10-(cyanomethylidene)-9-methoxy-2,4a,6a,9,12b,14a-hexamethyl-11-oxo-1,2,3,4,4a,5,6,6a,9,10,11,12b,13,14,14a,14b-hexadecahydropicene-2-carboxylic acid], for which the inhibition at 10 µM in assay [1] was not below 80%; in assay [2], not below 80%; in assay [3] it was 30 to 50%; in assay [4] it was 50 to 80%; in assay [5] it was not below 80%; in assay [6], not below 80%. The inhibition at 10 µM in assay [7] is not below 80%.
Turning to `CC12OCCOC1(O)C(=O)C=C1C2=CC=C2[C@@]1(C)CC[C@@]1(C)[C@@H]3C[C@](C)(C(=O)O)CC[C@]3(C)CC[C@]21C` (stereo partly drawn) [Compound A43, (6bS,8aS,11R,12aR,12bS,14aR)-16a-hydroxy-4a,6b,8a,11,12b,14a-hexamethyl-16-oxo-2,3,4a,6b,7,8,8a,9,10,11,12,12a,12b,13,14,14a,16,16a-octadecahydropiceno[3,4-b][1,4]dioxine-11-carboxylic acid], the inhibition at 10 µM in assay [1], in assay [2], in assay [3], in assay [4], in assay [5] and in assay [6] was less than 30% in each case. Besides, the inhibition at 10 µM in assay [7] is less than 30%.

For the origin of these results see US12570687B2, “Triterpenoid compounds, pharmaceutical compositions thereof, and their use for treating a nuclear receptor subfamily 4 group a member 1-mediated disease” (NUCMITO PHARMACEUTICALS COMPANY LIMITED, priority 2019, dated 2026).
